Experimental data: ChEMBL document CHEMBL5625204, “Synthesis and pharmacodynamic evaluation of naphthalene derivatives against influenza A virus in vitro and in vivo” (Eur J Med Chem, 2023)
pEC50: −log10 of the molar value. Activity calls are given as the source filed them. The calls are words filed in the database; no cut-off is given here.

Experiments:
[1] = Cytotoxicity against dog MDCK cells assessed as reduction in cell viability incubated for 72 hrs by MTT assay; assay type: toxicity, cell-based, Canis lupus familiaris
[2] = tested on: Influenza A virus; assay: Antiviral activity against Influenza A virus H1N1 (A/Weiss/43) infected in MDCK cells assessed as reduction of viral replication at 0.625 to 100 uM incubated for 72 hrs by TCID50 method; assay type: functional, organism-based; conditions: dose 0.625-100 µM
[3] = tested on: Influenza A virus; assay: Antiviral activity against Influenza A virus H1N1 (A/Weiss/43) infected in MDCK cells assessed as reduction of viral replication treated for 72 hrs after viral adsorption by TCID50 method; assay type: functional, organism-based
[4] = Selectivity index, ratio of CC50 for dog MDCK cells to EC50 for antiviral activity against Influenza A virus H1N1 (A/Weiss/43) infected in MDCK cells treated for 72 hrs after viral adsorption; assay type: toxicity, cell-based; conditions: read-out: Ratio CC50/EC50
[5] = tested on: Influenza A virus; assay: Antiviral activity against Influenza A virus H1N1 (A/Weiss/43)-infected in BALB/c mouse assessed as reduction in pulmonary inflammation at 50 mg/kg/day administered intranasally for 6 days starting from 3 hrs post-viral infection by Hematoxylin-Eosin staining based analysis; assay type: functional, organism-based; conditions: route nas, time 6.0 day
[6] = tested on: Influenza A virus; assay: Antiviral activity against Influenza A virus H1N1 (A/Weiss/43)-infected in BALB/c mouse assessed as reduction in lung index at 50 mg/kg/day administered intranasally for 6 days starting from 3 hrs post-viral infection; assay type: functional; conditions: 144 h, route nas, time 6 day
[7] = tested on: Influenza A virus; assay: Antiviral activity against Influenza A virus H1N1 (A/Virginia/ATCC2/2009) infected in MDCK cells assessed as reduction of viral replication incubated for 72 hrs by TCID50 method; assay type: functional, organism-based
[8] = Selectivity index, ratio of CC50 for dog MDCK cells to EC50 for antiviral activity against Influenza A virus H1N1 (A/Virginia/ATCC2/2009) infected in MDCK cells; assay type: toxicity, cell-based; conditions: read-out: Ratio CC50/EC50
[9] = tested on: Influenza A virus; assay: Antiviral activity against Influenza A virus H3N2 (A/California/2004) infected in MDCK cells assessed as reduction of viral replication incubated for 72 hrs by TCID50 method; assay type: functional, organism-based
[10] = Selectivity index, ratio of CC50 for dog MDCK cells to EC50 for antiviral activity against Influenza A virus H3N2 (A/California/2004) infected in MDCK cells; assay type: toxicity, cell-based; conditions: read-out: Ratio CC50/EC50
[11] = tested on: Influenza A virus; assay: Antiviral activity against Influenza A virus H1N1 (A/Weiss/43)-infected in dog MDCK cells assessed as reduction in oxidative stress by measuring proportion of normal cells at 50 uM treated at 2 hrs post-infection and measured after 36 hrs by DCFH-DA staining based flow cytometry (reference value: 69.4%); assay type: functional; set-up: scale not given: the % may be the effect or the level left
[12] = tested on: Influenza A virus; assay: Antiviral activity against Influenza A virus H1N1 (A/Weiss/43)-infected in dog MDCK cells assessed as reduction in oxidative stress by measuring proportion of cells with excessive ROS accumulation at 50 uM treated at 2 hrs post-infection and measured after 36 hrs by DCFH-DA staining based flow cytometry (reference value: 30.6%); assay type: functional; set-up: scale not given: the % may be the effect or the level left
[13] = tested on: Influenza A virus; assay: Antiviral activity against Influenza A virus H1N1 infected in dog MDCK cells assessed as decrease in apoptosis by measuring proportion of viable cells at 50 uM measured after 72 hrs by AnnexinV-FITC/PI staining based flow cytometry (reference value: 62.9%); assay type: functional
[14] = tested on: Influenza A virus; assay: Antiviral activity against Influenza A virus H1N1 infected in dog MDCK cells assessed as decrease in apoptosis by measuring proportion of early apoptotic cells at 50 uM measured after 72 hrs by AnnexinV-FITC/PI staining based flow cytometry (reference value: 24.3%); assay type: functional; set-up: scale not given: the % may be the effect or the level left
[15] = tested on: Influenza A virus; assay: Antiviral activity against Influenza A virus H1N1 infected in dog MDCK cells assessed as decrease in apoptosis by measuring proportion of late apoptotic cells at 50 uM measured after 72 hrs by AnnexinV-FITC/PI staining based flow cytometry (reference value: 10.3%); assay type: functional; set-up: scale not given: the % may be the effect or the level left
[16] = tested on: Influenza A virus; assay: Antiviral activity against Influenza A virus H1N1 infected in dog MDCK cells assessed as decrease in apoptosis by measuring proportion of necrotic cells at 50 uM measured after 72 hrs by AnnexinV-FITC/PI staining based flow cytometry (reference value: 2.47%); assay type: functional; set-up: scale not given: the % may be the effect or the level left
[17] = tested on: Influenza A virus; assay: Inhibition of Influenza A virus Neuraminidase at 100 to 300 uM pretreated with enzyme for 5 mins followed by fluorogenic substrate addition and measured for 1 hr by fluorescence based analysis; conditions: dose 100-300 µM, time 65.0 min

Structure (SMILES)	CC50 at 72 h [1]	Activity [2]	other results
O=S(=O)(c1ccc(Cl)cc1)N(Cc1ccccc1)c1cccc2ccccc12	> 800 µM	inactive	
COc1ccc(S(=O)(=O)N(Cc2ccccc2)c2cc3ccccc3c3ccccc23)cc1	288 µM	inactive	
Cc1ccc(S(=O)(=O)N(c2ccccc2)c2cccc3ccccc23)cc1	1160 µM	inactive	
NC(=O)c1ncn([C@@H]2O[C@H](CO)[C@@H](O)[C@H]2O)n1 [RIBAVIRIN]	707 µM		pEC50 [3]: 4.89; selectivity ratio at 72 h [4]: 54.4; Activity [5]: Active; inhibition in vivo at 50 mg/kg/day [6]: 40%; pEC50 [7]: 4.73; selectivity ratio [8]: 38.3; pEC50 [9]: 4.61; selectivity ratio [10]: 28.5; Activity [11]: 92.5%; Activity [12]: 7.48%; Activity [13]: 93.2%; Activity [14]: 2.76%; Activity [15]: 2.43%; Activity [16]: 1.56%
CS(=O)(=O)N(Cc1ccccc1)c1cc2ccccc2c2ccccc12	> 800 µM	inactive	
Cc1ccc(S(=O)(=O)N(C2=CCCc3ccccc32)c2ccccc2)cc1	1210 µM	inactive	
CS(=O)(=O)N(C1=CCCc2ccccc21)c1ccccc1	345 µM		pEC50 [3]: 4.29; selectivity ratio at 72 h [4]: 6.78
Cc1ccc(S(=O)(=O)N(Cc2ccccc2)c2cc3ccccc3c3cc(C)ccc23)cc1	> 800 µM	inactive	
Cc1ccc(S(=O)(=O)N(Cc2ccccc2)c2cc3ccccc3c3ccc(-c4ccccc4)cc23)cc1	> 800 µM	inactive	
COc1ccc(S(=O)(=O)N(Cc2ccccc2)C2=CCCc3ccccc32)cc1	> 800 µM	inactive	
Cc1ccc(S(=O)(=O)N(c2ccccc2)c2cc3ccccc3c3ccccc23)cc1	> 800 µM	inactive	
Cc1ccc(S(=O)(=O)N(Cc2ccccc2)c2cccc3ccccc23)cc1	1370 µM	inactive	
Cc1ccc(S(=O)(=O)N(Cc2ccccc2)c2cc3ccccc3c3ccc(C)cc23)cc1	> 800 µM		pEC50 [3]: 4.44; selectivity ratio at 72 h [4]: > 22
COc1ccc2c(c1)c(N(Cc1ccccc1)S(=O)(=O)c1ccc(C)cc1)cc1ccccc12	> 800 µM		pEC50 [3]: 4.66; selectivity ratio at 72 h [4]: > 36.8
COc1ccc(S(=O)(=O)N(Cc2ccccc2)c2cccc3ccccc23)cc1	> 800 µM	inactive	
Cc1ccc(S(=O)(=O)N(Cc2ccccc2)c2cc3ccc(C)cc3c3ccccc23)cc1	> 800 µM	inactive	
O=C1OCCN1C1=CCCc2ccccc21	301 µM	inactive	
Cc1ccc(S(=O)(=O)N(Cc2ccccc2)c2cc3ccccc3c3ccc(Cl)cc23)cc1	> 800 µM	inactive	
CC(=O)c1ccc2c(c1)c(N(Cc1ccccc1)S(=O)(=O)c1ccc(C)cc1)cc1ccccc12	382 µM	inactive	
O=S(=O)(c1ccc(Cl)cc1)N(Cc1ccccc1)C1=CCCc2ccccc21	> 800 µM	inactive	
Cc1ccc(S(=O)(=O)N(C)c2cccc3ccccc23)cc1	> 800 µM	inactive	
C=CCN(c1cccc2ccccc12)S(=O)(=O)c1ccc(C)cc1	620 µM	inactive	
Cc1ccc(S(=O)(=O)N(Cc2ccccc2)C2=CCCc3ccccc32)cc1	1170 µM	inactive	

Structure (SMILES)	CC50 at 72 h [1]	Activity [2]	other results
O=C1OCCN1c1cc2ccccc2c2ccccc12	212 µM	inactive	
O=[N+]([O-])c1ccc(S(=O)(=O)N(Cc2ccccc2)c2cc3ccccc3c3ccccc23)cc1	726 µM	inactive	
Cc1ccc(S(=O)(=O)N(Cc2ccccc2)c2cc3ccccc3c3ccccc23)cc1	> 800 µM	inactive	
Cc1ccc(S(=O)(=O)N(Cc2ccccc2)C2=CCOc3ccccc32)cc1	1270 µM		pEC50 [3]: 4.12; selectivity ratio at 72 h [4]: 16.6
Cc1ccc(S(=O)(=O)N(Cc2ccccc2)c2cc3ccccc3c3ccc4ccsc4c23)cc1	1420 µM	inactive	
Cc1ccc(S(=O)(=O)N(Cc2ccccc2)c2cc3ccccc3c3ccc4ccccc4c23)cc1	> 800 µM	inactive	
Cc1ccc(S(=O)(=O)Nc2cc3ccccc3c3ccc(-c4ccccc4)cc23)cc1	> 800 µM	inactive	
COC(=O)c1ccc2c(c1)c(N(Cc1ccccc1)S(=O)(=O)c1ccc(C)cc1)cc1ccccc12	3670 µM	inactive	
O=[N+]([O-])c1ccc(S(=O)(=O)N(Cc2ccccc2)C2=CCCc3ccccc32)cc1	> 800 µM	inactive	
C=CCN(C1=CCCc2ccccc21)S(=O)(=O)c1ccc(C)cc1	127 µM	inactive	
CCCCN(C1=CCCc2ccccc21)S(=O)(=O)c1ccc(C)cc1	1170 µM		pEC50 [3]: 4.40; selectivity ratio at 72 h [4]: 29.3
CCCCN(c1cccc2ccccc12)S(=O)(=O)c1ccc(C)cc1	311 µM	inactive	
COc1ccc2c(c1)c(NS(=O)(=O)c1ccc(C)cc1)cc1ccccc12	> 800 µM		pEC50 [3]: 4.16; selectivity ratio at 72 h [4]: > 11.5
Cc1ccc(S(=O)(=O)N(Cc2ccccc2)c2cc3ccccc3c3cc(Cl)ccc23)cc1	2330 µM	inactive	
CCOC(=O)C1=C[C@@H](OC(CC)CC)[C@H](NC(C)=O)[C@@H](N)C1 [OSELTAMIVIR]	> 800 µM		inhibition [17]: Active; pEC50 [3]: 5.77; selectivity ratio at 72 h [4]: > 471; Activity [5]: Active; inhibition in vivo at 50 mg/kg/day [6]: 33.1%; pEC50 [7]: 5.77; selectivity ratio [8]: > 468; pEC50 [9]: 5.23; selectivity ratio [10]: > 136
O=S(=O)(c1ccc(Cl)cc1)N(Cc1ccccc1)c1cc2ccccc2c2ccccc12	> 800 µM		pEC50 [3]: 4.52; selectivity ratio at 72 h [4]: > 26.7
CS(=O)(=O)Nc1cc2ccccc2c2ccccc12	73.4 µM	inactive	
C=CCN(c1cc2ccccc2c2ccccc12)S(=O)(=O)c1ccc(C)cc1	61.2 µM	inactive	
Cc1ccc(S(=O)(=O)N(C)c2cc3ccccc3c3ccccc23)cc1	3120 µM	inactive	
O=C1OCCN1c1cccc2ccccc12	> 800 µM	inactive	
Cc1ccc(S(=O)(=O)N(Cc2ccccc2)c2cc3ccccc3c3ccc(F)cc23)cc1	1040 µM	inactive	
Cc1ccc(S(=O)(=O)Nc2cc3ccccc3c3cc(C)ccc23)cc1	227 µM	inactive	
